What was measured:
PTP1B = PTP1B (Homo sapiens (Human), UniProt P18031); assay: Experiment of PTP1B inhibition (p-NPP dephosphorylation); assay type: biochemical; conditions: 2 mM p-NPP substrate, 30° C., 30 minutes
Outline: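 PTP1B reacted with 2 mM p-NPP in 50 mM citrate pH 6.0, 0.1 M NaCl, 1 mM EDTA, 1 mM DTT plus compound at various concentrations, 30 °C for 30 min. Reaction stopped with 1 N NaOH; p-nitrophenol absorbance gives IC50.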

db/db mice = assay: Anti-diabetic effects for db/db mice (glycosylated hemoglobin); assay type: in vivo, C57BLKS/J-db/db mice
Description: 5-week-old male C57BLKS/J-db/db mice (Central Lab. Animal Inc.) were purchased and acclimatized for 2 weeks, and then used in this experiment. Samples were exactly taken from the compounds prepared in Examples 4 and 15 of the present invention (Compounds 5 and 16) according to the administration dose and put into Falcon tubes, a 0.5% methyl cellulose aqueous solution stored refrigerated was placed at room temperature to allow the excipients to be warmed at room temperature, 16 ml of each of the excipients was added to a 50 ml Falcon tube, and a vortex mixer was used to primarily mix the ingredients in a soft manner, and then a suspension was obtained and homogenized by treating the sample for 3 minutes using a homogenizer (30,000 rpm, CPT-1600E, Kinemtica, Switzerland), and then ultrasonically treated for 30 minutes. The sample thus prepared was administered through oral gavage using a disposable plastic syringe equipped with a sonde once daily for 42 days (6 weeks).
The glycosylated hemoglobin (HbA1c) was measured while the db/db mice were bred. The gyclosylated hemoglobin was measured at 2 days prior to group separation, 4 weeks after administration, and 6 weeks after administration, and was measured by fasting the mice for 4 hours on the measurement date, collecting blood from the caudal vein before each material was administered, and using a device for measuring glycosylated hemoglobin (SD A1cCare, SD Biosensor, Inc., Korea).

C2C12 cells = assay: Glucose uptake (2-NBDG) in C2C12 cells; assay type: cell-based; conditions: compared with Rosiglytazone and Metformin
Description: In terms of capacity of glucose uptake in C2C12 cells, the compound (Compound 15) of Example 14 of the present invention was compared with the existing Rosiglytazone and Metformin which were used or are currently used as a therapeutic agent for diabetes. The C2C12 cell was cultured in a Dulbecco's modified eagle medium (DMEM) supplemented with 10% fetal bovine serum (FBS), penicillin (120 unit/mL), and streptomycin (75 μg/mL), the medium used for differentiation was a DMEM medium supplemented with 1% horse serum, and the C2C12 cell was cultured in the DMEM medium for 4 days. The cell thus cultured was treated with Compound 15 in a low-glucose, serum-free medium supplemented with 2-[N-(7-nitrobenz-2-oxa-1,3-diazol-4-yl)amino]-2-deoxy-d-glucose (2-NBDG) for 24 hours to measure the glucose absorbance at an excitation wavelength of 485 nm and an emission wavelength of 535 nm using a fluorescent detector. The same experiment was performed on Rosiglytazone and Metformin.

PTP1B, sequence (P18031 whole entry, species assumed): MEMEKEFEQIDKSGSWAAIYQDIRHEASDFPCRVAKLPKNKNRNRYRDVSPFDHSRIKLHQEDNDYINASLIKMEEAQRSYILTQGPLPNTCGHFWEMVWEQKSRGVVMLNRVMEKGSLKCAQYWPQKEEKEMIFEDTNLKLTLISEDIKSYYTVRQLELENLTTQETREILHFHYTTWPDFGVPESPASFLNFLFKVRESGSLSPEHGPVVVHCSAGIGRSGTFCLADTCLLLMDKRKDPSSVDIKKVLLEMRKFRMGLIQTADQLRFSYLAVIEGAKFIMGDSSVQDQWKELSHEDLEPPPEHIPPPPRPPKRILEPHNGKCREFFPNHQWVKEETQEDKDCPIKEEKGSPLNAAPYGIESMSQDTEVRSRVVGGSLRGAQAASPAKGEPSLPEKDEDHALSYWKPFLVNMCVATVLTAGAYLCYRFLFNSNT

CCCc1ccc(C2COc3c(ccc4c3CCC(C)(C)O4)C2)c(O)c1 (stereo not drawn) [Compound 5, 3-(2-hydroxy-4-propylphenyl)-8,8-dimethyl-2,3,4,8,9,10-hexahydropyrano [2,3-f] chromene]
IC50 (PTP1B): 2.8 µM
HbA1c (%) 4 weeks (db/db mice; 4 weeks after administration, 300 mg/kg oral once daily): 5.3%
HbA1c (%) 6 weeks (db/db mice; 6 weeks after administration, 300 mg/kg oral once daily): 5.7%
HbA1c (%) Before administration (db/db mice; before administration, 300 mg/kg group): 4.7%

CCOc1ccc(C2COc3c(ccc4c3CCC(C)(C)O4)C2)c(O)c1 (stereo not drawn) [Compound 15, 3-(2-hydroxy-4-ethoxyphenyl)-8,8-dimethyl-2,3,4,8,9,10-hexahydropyrano [2,3-f] chromene]
IC50 (PTP1B): 8.6 µM
capacity of promoting glucose uptake, in words (C2C12 cells): better than that of the existing therapeutic agent for diabetes

Source: patent publication US9783551B2, “Pyranochromenyl phenol derivative, and pharmaceutical composition for treating metabolic syndrome or inflammatory disease” (GLACEUM, INC., priority 2013, dated 2017)
